# Experimental data: US20160193316A1 (priority 1994, published 2016)
# pIC50: −log10 of the molar value. Like-named read-outs stand apart in the source and are kept apart here. No end group written: not given here.
# Experiments:
# [1] = target: HLA-A*3101 (Homo sapiens, UniProt P04439, A270S/D185E/E176V/E277Q/F33T/G231S/G80R/H175R/I121M/I218V/I322F/K168Q/L300P/L318F/M331R/P217A/Q94H/R138Q/T323A/T345S/T97I/V358M); experiment: HLA class I peptide binding assay
# [2] = target: HLA-A*3301 (Homo sapiens, UniProt P04439, A270S/D185E/E176V/E277Q/E87N/F33T/G231S/H175R/I121M/I218V/I322F/K168Q/K210R/L300P/L318F/M331R/P217A/Q86R/Q94H/R138Q/T323A/T345S/T97I/V358M/Y195H); experiment: HLA class I peptide binding assay
# [3] = target: HLA-A*1101 (Homo sapiens, UniProt P04439, A114D/D185E/E176A/F33Y/L180Q/S129P/T187R); experiment: HLA class I peptide binding assay
# [4] = tested on: HLA-A3-supertype molecules (A3, A11, A*3101, A*3301, A*6801); format: binding, human
# [5] = tested on: T helper lymphocytes; conditions: regardless of HLA type, WO 95/07707; cited from earlier work
# [6] = target: T1, HLA-B*0702 (Homo sapiens, UniProt P01889); experiment: HLA class I peptide binding assay; conditions: Malaria B07 super motif peptides; binding value, no unit
# T1 construct: endogenous in cells; host or cells: GM3107
# [7] = target: HLA-A*0101 (Homo sapiens, UniProt P04439, A114D/A174V/A182V/D101N/D185E/E176A/E190D/L180R/Q94H/R68K/S129P/T187R/V100A/V91M/W191G); format: binding
# [8] = target: T2, HLA-A*0301 (Homo sapiens, UniProt P04439); experiment: HLA class I peptide binding assay; conditions: Malaria A3 motif peptides, Table XVI; binding value to HLA-A*0301, unit not given
# T2 construct: endogenous in cells; host or cells: GM3107
# [9] = target: T3, DRB1*0301 (DR3) (Homo sapiens, UniProt P01903+P01911, A100K/A102G/A103R/A169T/F55Y/I96L/K41T/L162R/M171V/P40S/Q125H/Q178H/Q39Y/R42S/S66N/T106N/T262R/W38E/Y61H); experiment: HLA class II peptide binding assay (pH 4.5)
# T3 construct: endogenous in cells; host or cells: MAT
# [10] = target: HLA-A*2402 (Homo sapiens, UniProt P04439, D101N/D140Y/D185E/E176V/E190D/F33S/G103R/G107R/I119L/I121M/I306V/K335N/L105A/L180Q/L300P/N151K/N90K/Q86E/Q94H/R106L/R138H/R89G/T104I/T345S/V100E/W191G/Y123F); experiment: HLA class I peptide binding assay; conditions: unit not given
# [11] = target: T4, DRB1*0802 (DR8w2) (Homo sapiens, UniProt P01903+P01911, A100R/A103L/A169T/F76Y/H45Y/I96F/K41T/L162R/M171V/P40S/Q125H/Q178H/Q39Y/Q99D/R218S/R42G/S66Y/V115G/W38E); experiment: biochemical; format: binding
# T4 construct: endogenous in cells; host or cells: OLL
# [12] = target: T5, DRB1*0901 (DR9) (Homo sapiens, UniProt P01903+P01911, A100R/A103E/D57H/D86V/F55Y/F60I/F76Y/I96F/K127E/L162R/M171V/P40D/Q125H/Q99R/R33Q/R42F/S133A/S66N/T210M/V115G/W38K/Y107V/Y59G/Y89S); experiment: biochemical; format: binding
# T5 construct: endogenous in cells; host or cells: HID
# [13] = target: T6, DRB5*0101 (DR2w2β2) (Homo sapiens, UniProt P01903+Q30154); format: binding
# T6 construct: expressed in transfected cells; host or cells: L416.3 (fibroblasts) or GM3107
# [14] = target: T7, DRB1*1201 (DR5w12) (Homo sapiens, UniProt P01903+P01911, A100R/A169T/D57E/D86V/F55L/H45Y/K41T/L162R/M171V/P40S/Q125H/Q178H/Q39Y/Q99D/R42G/S66L/T262R/V114A/V67L/W38E/Y59H/Y61H/Y89S); experiment: HLA class II peptide binding assay; conditions: Table XIXb; DR5w12
# T7 construct: endogenous in cells; host or cells: Herluf
# [15] = target: T8, DRB1*0401 (DR4w4) (Homo sapiens, UniProt P01903+P01911, A100K/A169T/F76Y/I96L/K127E/L162R/M171V/N62H/P40V/Q125Y/R42H/S133A/S149N/S66Y/V115G/V209L/W38E); experiment: HLA class II peptide binding assay; conditions: Table XIXb; DR4w4
# T8 construct: endogenous in cells; host or cells: Preiss
# [16] = target: T9, DRB1*1101 (DR5w11) (Homo sapiens, UniProt P01903+P01911, A100R/A169T/A87E/I96F/K41T/L162R/M171V/P40S/Q125H/Q178H/Q39Y/Q99D/R42S/S66Y/T262R/V115G/W38E); experiment: biochemical; format: binding
# T9 construct: endogenous in cells; host or cells: Sweig
# [17] = target: T10, DRB1*0701 (DR7) (Homo sapiens, UniProt P01903+P01911, A100R/A102G/A103Q/D57E/D86V/E43K/F76Y/K127E/L162R/M171V/P40G/Q125H/Q99D/R33Q/R42Y/R54Q/S133A/S66F/T210M/V115G/Y107V/Y59L/Y89S); experiment: biochemical; format: binding
# T10 construct: endogenous in cells; host or cells: Pitout
# [18] = target: T11, DRB1*1501 (DR2w2β1) (Homo sapiens, UniProt P01903+P01911); experiment: HLA class II peptide binding assay; conditions: Table XIXb; DR2w2β1
# T11 construct: expressed in transfected cells; host or cells: L466.1 (fibroblasts)
# [19] = target: T12, DRB1*0101 (DR1) (Homo sapiens, UniProt P01903+P01911, A100R/D57E/F55L/F60I/F76Y/I96L/L162R/M171V/P40L/Q125E/R42F/V115G/Y59C); experiment: HLA class II peptide binding assay; conditions: Table XIXb, Malaria Super Motif Peptides With Binding Data; DR1
# T12 construct: endogenous in cells; host or cells: LG2
# [20] = target: T13, DRB1*0405 (DR4w15) (Homo sapiens, UniProt P01903+P01911, A100R/A169T/D86S/F76Y/I96L/K127E/L162R/M171V/N62H/P40V/Q125Y/R42H/S133A/S149N/S66Y/V115G/V209L/W38E); experiment: HLA class II peptide binding assay; conditions: Table XIXb; DR4w15
# T13 construct: endogenous in cells; host or cells: KT3
# [21] = target: T14, DRB1*1302 (DR6w19) (Homo sapiens, UniProt P01903+P01911, A100E/A169T/K41T/L162R/M171V/P40S/Q125H/Q178H/Q39Y/Q99D/R42S/S66N/T262R/V115G/W38E/Y61H); experiment: HLA class II peptide binding assay; conditions: Table XIXb; DR6w19
# T14 construct: endogenous in cells; host or cells: H0301
substance,measurement,setting,value
FILVNLLIFH [Peptide 1167.46],pIC50,[1],5.71
same,pIC50,[2],6.40
same,pIC50,[3],5.88
same,Alleles bound,"[4]; A3-supermotif CTL epitopes, five A3-supertype alleles (Table XXVII)",2
same,Alleles bound,"[4]; A3-supertype peptides tested for binding to A*03, A*11, A*31011, A*3301, A*6801",2
same,Alleles bound,"[4]; A3-supertype, tested on A*03, A*11, A*31011, A*3301, A*6801, unfixed parent peptide",2
aKXVWANTLKAAa,Stimulation of T helper lymphocyte response,[5],stimulate the response of T helper lymphocytes from most individuals
HPSDGKCNLY,B*0702 (binding information),[6],0.0001
same,A*0101 (binding information),[7],0.0260
PSDGKCNLY,A*0301 (binding information),[8],0.0002
same,A*1101 binding information,"[3]; Table XVII, malaria A11 motif peptides, binding value unit not given",0.0002
same,A*010I,[7],0.5400
same,A*0101 (binding information),[7],0.5400
LPSENERGY,DR3 binding information,"[9]; DR3a motif peptides, unit not given, exemplary 15-mer containing the core sequence",-0.0033
same,B*0702 (binding information),[6],"0,0001"
same,A*0101 (binding information),[7],0.6700
FYFILVNLL,HLA-A24 binding value,[10]; HLA class I binding value as printed in column headed A*201 of Table X,7.5000
same,"A*2401 (binding information, Malaria A24 motif peptides)",[10]; HLA-A*2401 binding value as printed,7.5000
same,DR8w2 binding data,[11],0.0010
same,DR3 binding data,"[9]; Table XIXb, DR3",-0.0008
same,DR9 binding data,[12],-0.0003
same,DR2w2β2 binding data,[13],0.0044
same,DR5w12 binding data,[14],0.0006
same,DR4w4 binding data,[15],0.0210
same,DR5w11 binding data,[16],0.0011
same,DR7 binding data,[17],0.0020
same,DR2w2β1 binding data,[18],0.0040
same,DR1 binding data,[19],0.0029
same,DR4w15 binding data,[20],-0.0009
same,DR6w19 binding data,[21],0.0003
FQDEENIGIY,A*0101 (binding information),[7],1.1000
